The nature of data set [1]: Compound analysis: liver, adipose and plasma concentrations 3 days after a single oral dose. Type of data set: in vivo, female C57BL/6 mice. To be noted: for liver:adipose ratio (hepatic sequestration criterion 0.3) / tissue uptake / Adipose % dose / g tissue / Liver % dose / g tissue / Plasma % dose / g tissue: 3 days after single oral dose; for liver:adipose ratio (hepatic sequestration criterion 0.3): Table 1 doses; for Liver:adipose ratio: based on ng/g tissue, day 3; for tissue uptake: female, C57BL/6, mouse, in vivo. The protocol: (§1) Animals. Eight-week-old female C57BL/6 mice (Harlan laboratories, Venray, the Netherlands) were randomly assigned to treatment groups (six animals per group) and allowed to acclimate for 1.5 weeks. The animals were housed in groups in standard cages and conditions (23 ± 2°C, 50–60% relative humidity, 12-hr dark/light cycle) with free access to food and water. Mice received a single dose of test compound by oral gavage at a dosing volume of 10 mL/kg body weight (BW). Mice treated with corn oil vehicle (10 mL/kg BW) served as controls. For each congener, five different doses were administered, ranging from 0.5–100 μg/kg BW (TCDD) to 5,000–500,000 µg/kg BW (PCB-153). Detailed information on doses is provided in Supplemental Material, Table S1 (http://dx.doi.org/10.1289/ehp.1206336). On day 3 after dosing, animals were euthanized by CO2/O2 asphyxiation, and blood was immediately collected from the abdominal aorta. The liver, thymus, spleen, and adipose tissue were removed, weighed (liver, thymus, and spleen), snap frozen, and stored at –80°C. All animal treatments were performed with permission of the Animal Ethical Committee (DEC Utrecht) and performed according to the [Law on Animal Experiments (1977)]. Animals were treated humanely and with regard for alleviation of suffering.
Compound analysis. Adipose and liver tissues samples were homogenized in Na2SO4, followed by extraction and clean-up in one step, and then eluted with 200 mL 1:1 hexane:dichloromethane on an open column packed with 40% wt/wt H2SO4-impregnated silica and KOH-silica. Blood plasma samples were extracted on an open column using Chem-Elut (Agilent Technologies, Santa Clara, CA, USA) and then NaCl eluted with 75 mL 3:2 hexane:2-propanol. Clean-up was performed using a miniaturized silica column (as described above), and samples were eluted using 30 mL hexane. Because the samples typically contained high levels of the analytes, only a small fraction was evaporated and analyzed. Prior to evaporation, we spiked a fraction of the samples with ^13C-labeled standards. We checked potential loss of analytes during extraction and clean-up by reextracting the samples using the identical protocol used for the samples. […] Tetradecane was added prior to evaporation. Sample analysis followed the U.S. Environmental Protection Agency Method 1613 ([U.S. Environmental Protection Agency 1994]) using single ion monitoring mode on an Agilent 6809N gas chromatograph (Agilent Technologies) coupled with a Micromass Ultima Autospec Ultra high-resolution mass spectrometer (HRMS; Waters Corp., Milford, MA, USA). Compounds were separated on a 60 m × 0.25 mm DB5-MS column ([…]; J&W Scientific, Folsom, CA, USA). The HRMS was operated with electron impact ionization with electron energy of 35 eV and an ion source temperature of 250°C. To reduce the number of analyses, samples were pooled before clean-up. […] This method was used because full congener–specific separation could be achieved on the high-resolution GC–HRMS. For lipid determination, samples were evaporated to dryness after the extraction step, and the amount of lipids was determined gravimetrically. Concentrations were calculated based on lipid weight and wet weight. The analysis of samples for the PCB-118 5,000 μg/kg BW dose failed during the procedure; thus analysis for this group could not be completed.
(§2) Plasma and PBL isolation. Blood from two mice was pooled (total volume of approximately 1.4 mL); plasma and PBLs were then isolated using Ficoll Paque gradient (GE Healthcare Europe, Diegem, Belgium). Plasma samples were stored at –80°C until compound analysis. Isolated lymphocytes were lysed with RLT buffer (QIAGEN, Venlo, the Netherlands) as described in the QIAGEN RNAeasy kit protocol and stored at –80°C until use.

Another data set has as its system Cyp1b1 mRNA in PBLs. The experiment in a line: Cyp1b1 gene expression in peripheral blood lymphocytes. Type of data set: in vivo, female C57BL/6 mice. Particulars: for Effect on Cyp1b1 mRNA in PBLs: single oral dose, day 3; for BMR20TCDD PBLs Cyp1b1 mRNA: 3 days after single oral dose; for REP PBLs Cyp1b1 mRNA: relative to TCDD. The protocol: as §1, §2
RNA isolation and quantitative real-time polymerase chain reaction (PCR). Total RNA was isolated from liver and PBLs using a QIAGEN RNeasy kit (QIAGEN). Purity and concentration of the isolated RNA was determined by measuring the absorbance ratio at 260/280 nm and 230/260 nm with a Nanodrop 2000 spectrophotometer (Thermo Scientific, Asheville, NC, USA). RNA was reverse transcribed to complementary DNA (cDNA) using the iScript cDNA synthesis Kit (Bio-Rad, Veenendaal, the Netherlands). Quantitative real-time PCR analyses were performed using the iQ Real-Time PCR Detection System with SYBR green (Bio-Rad). Amplification reactions were set up with […] containing 12.5 μL iQ SYBR Green Supermix (Bio-rad), 0.5 μL distilled H2O, 1 μL (10 μM) forward primer, 1 μL (10 μM) reverse primer, and 10 μL first strand cDNA (10X diluted). Primer sequences were as follows: Cyp1a1: forward-5´-GGTTAACCATGACCGGGAACT-3´ and reverse-5´-TGCCCAAACCAAAGAGAGTGA-3´ ([Schulz et al. 2012]); Cyp1a2: forward-5´-ACATTCCCAAGGAGCGCTGTATCT-3´ and reverse-5´-GTCGATGGCCGAGTTGTTATTGGT-3´ ([Flaveny et al. 2010]); Cyp1b1: forward-5´-GTGGCTGCTCATCCTCTTTACC-3´ and reverse-5´-CCCACAACCTGGTCCAACTC-3´ ([Berge et al. 2004]); β-actin: forward-5´-ATGCTCCCCGGGCTGTAT-3´ and reverse-5´-CATAGGAGTCCTTCTGACCCATTC-3´ ([Schulz et al. 2012]). All primers were run through the National Center for Biotechnology Information Primer-BLAST database (http://www.ncbi.nlm.nih.gov/tools/primer-blast/) to confirm specificity and validate for optimal annealing temperature (60°C for all primers) and efficiency. The efficiency of all primer pairs was 98–102% (tested at 60°C). The following program was used for denaturation and amplification of cDNA: 3 min at 95°C, followed by 40 cycles of 15 sec at 95°C and 45 sec at 60°C. Gene expression for each sample was expressed as threshold cycle (Ct), normalized to the reference gene β-actin (ΔCt). We calculated fold induction relative to the control group.
Data analysis. We obtained concentration–response curves using a sigmoidal dose–response nonlinear regression curve fit with variable slope (GraphPad Prism 6.01; GraphPad Software Inc., San Diego, CA, USA): […]

For data set [2] the following is noted: toxic equivalency factor relative to TCDD; ref Van den Berg et al. 2006; cited from earlier work.

The values below come from publication PMC3702004, “Comparison of Intake and Systemic Relative Effect Potencies of Dioxin-like Compounds in Female Mice after a Single Oral Dose” (Environmental Health Perspectives, 2013).

Consider `Clc1cc(Cl)c(-c2cc(Cl)c(Cl)cc2Cl)cc1Cl` [PCB-153, 2,2´,4,4´,5,5´-hexachlorobiphenyl], for which the “liver:adipose ratio (hepatic sequestration criterion 0.3)” value in data set [1] is recorded as less than 0.3. The “Liver:adipose ratio” value is on record as 0.08±0.02 in data set [1] (dose 5,000 μg/kg BW), 0.11±0.02 in data set [1] (dose 15,000 μg/kg BW) and 0.08±0.03 in data set [1] (dose 50,000 μg/kg BW). For the same compound, the tissue uptake in data set [1] (oral dose 5000 µg/kg bw) turned out to be 0.075 %ID/g. For the same compound, the “Adipose % dose / g tissue” value in data set [1] (oral dose 5000 µg/kg bw) is on record as 23 % dose / g tissue; in data set [1] (oral dose 15000 µg/kg bw), 25 % dose / g tissue; in data set [1] (oral dose 50000 µg/kg bw) it was 25 % dose / g tissue. Also, the “Liver % dose / g tissue” value in data set [1] (oral dose 5000 µg/kg bw) is on record as 1.8 % dose / g tissue; in data set [1] (oral dose 15000 µg/kg bw), 2.5 % dose / g tissue; in data set [1] (oral dose 50000 µg/kg bw), 2.0 % dose / g tissue. Moreover, the “Plasma % dose / g tissue” value in data set [1] (oral dose 15000 µg/kg bw) stood at 0.052 % dose / g tissue; in data set [1] (oral dose 50000 µg/kg bw), 0.060 % dose / g tissue; in data set [1] (oral dose 150000 µg/kg bw) it was 0.050 % dose / g tissue; in data set [1] (oral dose 500000 µg/kg bw) it was 0.042 % dose / g tissue. In addition, the “Effect on Cyp1b1 mRNA in PBLs” value in the data set with Cyp1b1 mRNA in PBLs is “did not induce”.

As for `Clc1cc2oc3c(Cl)c(Cl)c(Cl)cc3c2cc1Cl` [Congener 4-PeCDF, 2,3,4,7,8-pentachlorodibenzofuran], the “Adipose % dose / g tissue” value in data set [1] (oral dose 5 µg/kg bw) is listed as 3.4 % dose / g tissue; in data set [1] (oral dose 25 µg/kg bw) it was 3.0 % dose / g tissue; in data set [1] (oral dose 100 µg/kg bw) it was 3.5 % dose / g tissue. The entries for the “BMR20TCDD PBLs Cyp1b1 mRNA” value in the data set with Cyp1b1 mRNA in PBLs (dose metric Adm dose) and with Cyp1b1 mRNA in PBLs (dose metric Syst plasma) were 514 µg/kg BW and 212 ng/g lipid, respectively. Further, the “REP PBLs Cyp1b1 mRNA” value with Cyp1b1 mRNA in PBLs (dose metric Adm dose (µg/kg BW)) was 0.04; in the data set with Cyp1b1 mRNA in PBLs (dose metric Syst plasma (ng/g lipid)), 0.3. In the data set on Cyp1b1 mRNA in PBLs, the “Effect on Cyp1b1 mRNA in PBLs” value is given as “dose-dependently induced”. In addition, the WHO-TEF in data set [2] is on record as 0.3.

Turning to `Clc1ccc(-c2cc(Cl)c(Cl)c(Cl)c2Cl)cc1Cl` [PCB-156, 2,3,3´,4,4´,5-hexachlorobiphenyl], in data set [1], the “liver:adipose ratio (hepatic sequestration criterion 0.3)” value is reported as less than 0.3. In addition, the “Liver:adipose ratio” value is listed as 0.09±0.02 in data set [1] (dose 5,000 μg/kg BW), 0.11±0.03 in data set [1] (dose 15,000 μg/kg BW) and 0.12±0.02 in data set [1] (dose 50,000 μg/kg BW). In data set [1] (oral dose 5000 µg/kg bw), this compound displayed a tissue uptake of 0.079 %ID/g. The “Adipose % dose / g tissue” value in data set [1] (oral dose 5000 µg/kg bw) turned out to be 25 % dose / g tissue; in data set [1] (oral dose 15000 µg/kg bw) it was 22 % dose / g tissue; in data set [1] (oral dose 50000 µg/kg bw) it was 34 % dose / g tissue. The “Liver % dose / g tissue” value is 2.2 % dose / g tissue in data set [1] (oral dose 5000 µg/kg bw), 2.3 % dose / g tissue in data set [1] (oral dose 15000 µg/kg bw), 4.1 % dose / g tissue in data set [1] (oral dose 50000 µg/kg bw) and 3.0 % dose / g tissue in data set [1] (oral dose 150000 µg/kg bw). Further, the “Plasma % dose / g tissue” value in data set [1] (oral dose 15000 µg/kg bw) is listed as 0.061 % dose / g tissue; in data set [1] (oral dose 50000 µg/kg bw), 0.066 % dose / g tissue; in data set [1] (oral dose 150000 µg/kg bw), 0.045 % dose / g tissue; in data set [1] (oral dose 500000 µg/kg bw), 0.037 % dose / g tissue. Also, in the data set with Cyp1b1 mRNA in PBLs, the “Effect on Cyp1b1 mRNA in PBLs” value was “did not induce”. In data set [2], the WHO-TEF was 0.00003.

Broadly, the tissue uptake is the percentage of the injected dose found per gram of tissue.
